Where “and” joins values, the source holds several entries; their conditions need not be identical. Equal values may be shown once. Inconclusive results and toxic doses are left out.

This test has as its system L1210 leukemia ip in BDF1 mice, survival T/C. In words: NCI In Vivo Anticancer Drug Screen. Data for tumor model L1210 Leukemia (intraperitoneal) in B6D2F1 (BDF1) mice. The settings on record: endpoint: mean survival time, higher = longer survival. In a few lines: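 Transplantable tumor model; survival measured in treated vs vehicle control mice. Value = treated/control.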

[1] abbreviates: dose: 6.0 mg/kg/injection, schedule: Q01DX Z (ip), vehicle: carboxymethylcellulose (CMC).
[2] abbreviates: dose: 100.0 mg/kg/injection, schedule: Q01DX009 (ip), vehicle: Klucel (hydroxypropylcellulose) (HPC).
The mark [3] stands for this setting: dose: 200.0 mg/kg/injection, schedule: Q01DX009 (ip), vehicle: Klucel (hydroxypropylcellulose) (HPC).
The mark [4] stands for this setting: dose: 400.0 mg/kg/injection, schedule: Q01DX009 (ip), vehicle: Klucel (hydroxypropylcellulose) (HPC).
Where [5] appears, read: dose: 100.0 mg/kg/injection, schedule: Q01DX001 (ip), vehicle: carboxymethylcellulose (CMC).
The mark [6] stands for this setting: dose: 200.0 mg/kg/injection, schedule: Q01DX001 (ip), vehicle: carboxymethylcellulose (CMC).

Take `CN(C)CC/C=C1\c2ccccc2Sc2ccc(C(F)(F)F)cc21`: the T/C is 97 % of control (dose: 0.78 mg/kg/injection, schedule: Q01DX009 (ip), vehicle: saline); 102 % of control (dose: 0.78 mg/kg/injection, schedule: Q04DX003 (ip), vehicle: saline); 105 % of control (dose: 1.56 mg/kg/injection, schedule: Q01DX009 (ip), vehicle: saline); 105 % of control (dose: 1.56 mg/kg/injection, schedule: Q04DX003 (ip), vehicle: saline); 115 % of control (dose: 3.12 mg/kg/injection, schedule: Q01DX009 (ip), vehicle: saline); 100 % of control (dose: 3.12 mg/kg/injection, schedule: Q04DX003 (ip), vehicle: saline). The T/C by setting is: under setting [1], 111 % of control; (dose: 6.25 mg/kg/injection, schedule: Q04DX003 (ip), vehicle: saline) 107 % of control; (dose: 9.0 mg/kg/injection, schedule: Q01DX Z (ip), vehicle: carboxymethylcellulose (CMC)) 103 % of control and 108 % of control; (dose: 9.0 mg/kg/injection, schedule: Q01DX Z (ip), vehicle: other) 110 % of control; (dose: 12.5 mg/kg/injection, schedule: Q01DX009 (ip), vehicle: saline) 122 % of control; (dose: 12.5 mg/kg/injection, schedule: Q04DX003 (ip), vehicle: saline) 105 % of control. Moreover, the T/C is, setting by setting: (dose: 14.0 mg/kg/injection, schedule: Q01DX Z (ip), vehicle: carboxymethylcellulose (CMC)) 100 % of control and 111 % of control; (dose: 17.5 mg/kg/injection, schedule: Q01DX001 (ip), vehicle: saline) 114 % of control; (dose: 21.0 mg/kg/injection, schedule: Q01DX Z (ip), vehicle: carboxymethylcellulose (CMC)) 103 % of control; (dose: 21.0 mg/kg/injection, schedule: Q01DX Z (ip), vehicle: other) 110 % of control; (dose: 31.0 mg/kg/injection, schedule: Q01DX Z (ip), vehicle: carboxymethylcellulose (CMC)) 110 % of control; (dose: 35.0 mg/kg/injection, schedule: Q01DX001 (ip), vehicle: saline) 104 % of control. The T/C by setting is: (dose: 50.0 mg/kg/injection, schedule: Q04DX003 (ip), vehicle: saline) 120 % of control; (dose: 70.0 mg/kg/injection, schedule: Q01DX001 (ip), vehicle: saline) 108 % of control; (dose: 140.0 mg/kg/injection, schedule: Q01DX001 (ip), vehicle: saline) 123 % of control.
As for `CC(C)(C)C(=O)CC(=O)C(C)(C)C.CC(C)(C)C(=O)CC(=O)C(C)(C)C.CC(C)(C)C(=O)CC(=O)C(C)(C)C.[Ho]`, the T/C is, setting by setting: (dose: 100.0 mg/kg/injection, schedule: Q04DX003 (ip), vehicle: saline with Tween-80) 94 % of control; (dose: 200.0 mg/kg/injection, schedule: Q04DX003 (ip), vehicle: saline with Tween-80) 105 % of control; (dose: 400.0 mg/kg/injection, schedule: Q04DX003 (ip), vehicle: saline with Tween-80) 95 % of control.
`O=C(O)c1ccc2c([N+](=O)[O-])cccc2n1`: the T/C is 100 % of control under setting [2]; 96 % of control (dose: 100.0 mg/kg/injection, schedule: Q04DX003 (ip), vehicle: Klucel (hydroxypropylcellulose) (HPC)); 97 % of control under setting [3]; 107 % of control (dose: 200.0 mg/kg/injection, schedule: Q04DX003 (ip), vehicle: Klucel (hydroxypropylcellulose) (HPC)); 93 % of control (dose: 400.0 mg/kg/injection, schedule: Q04DX003 (ip), vehicle: Klucel (hydroxypropylcellulose) (HPC)).
For the molecule `CC1=COC(C)(C(=O)O)CC1` (stereo not given), the T/C was 100 % of control (dose: 55.0 mg/kg/injection, schedule: Q01DX Z (ip), vehicle: methylcellulose (MC)); 86 % of control (dose: 83.0 mg/kg/injection, schedule: Q01DX Z (ip), vehicle: methylcellulose (MC)); 102 % of control (dose: 125.0 mg/kg/injection, schedule: Q01DX Z (ip), vehicle: methylcellulose (MC)).
For the molecule `CN1CCN=C1c1ccc(NC(=O)c2ccc(C(=O)Nc3ccc(C4=NCCN4C)cc3)c(N)c2)cc1`, the T/C (dose: 3.0 mg/kg/injection, schedule: Q01DX Z (ip), vehicle: carboxymethylcellulose (CMC)) was 242 % of control; the T/C under setting [1] is 159 % of control; the T/C (dose: 6.0 mg/kg/injection, schedule: Q01DX Z (oral), vehicle: water) is 98 % of control; the T/C (dose: 12.0 mg/kg/injection, schedule: Q01DX Z (ip), vehicle: carboxymethylcellulose (CMC)) was 103 % of control; the T/C (dose: 12.0 mg/kg/injection, schedule: Q01DX Z (oral), vehicle: water) is 95 % of control; the T/C (dose: 24.0 mg/kg/injection, schedule: Q01DX Z (oral), vehicle: water) is 98 % of control. Besides, where the note is “dose: 48.0 mg/kg/injection, schedule: Q01DX Z (oral), vehicle: water”, the T/C is 101 % of control.
With `S=P1(c2ccccc2)Nc2ccccc2N1c1ccccc1` (stereo not given), the T/C (dose: 100.0 mg/kg/injection, schedule: Q04DX002 (ip), vehicle: DMSO) is 114 % of control and the T/C (dose: 200.0 mg/kg/injection, schedule: Q04DX002 (ip), vehicle: DMSO) was 86 % of control.
As for `COc1ccc(S(=O)(=O)Nc2cc([N+](=O)[O-])ccc2C)cc1`, the T/C runs as follows: under setting [2], 100 % of control; under setting [3], 100 % of control; under setting [4], 98 % of control.
`COC1OC(CBr)C(OC(=O)c2ccccc2)C(OC(=O)c2ccccc2)C1OS(=O)(=O)c1ccc(C)cc1` (stereo not given): the T/C (dose: 50.0 mg/kg/injection, schedule: Q04DX002 (ip), vehicle: Klucel (hydroxypropylcellulose) (HPC)) is 97 % of control; the T/C (dose: 100.0 mg/kg/injection, schedule: Q04DX002 (ip), vehicle: Klucel (hydroxypropylcellulose) (HPC)) is 87 % of control; the T/C (dose: 200.0 mg/kg/injection, schedule: Q04DX002 (ip), vehicle: Klucel (hydroxypropylcellulose) (HPC)) was 97 % of control.
With `CCOC(=O)C(CCC(=O)OC)C1=NC(C)(C)CC(C)O1` (stereo not given), the T/C was 106 % of control (dose: 100.0 mg/kg/injection, schedule: Q01DX001 (ip), vehicle: Klucel (hydroxypropylcellulose) (HPC)); 110 % of control (dose: 200.0 mg/kg/injection, schedule: Q01DX001 (ip), vehicle: Klucel (hydroxypropylcellulose) (HPC)); 97 % of control (dose: 400.0 mg/kg/injection, schedule: Q01DX001 (ip), vehicle: Klucel (hydroxypropylcellulose) (HPC)).
On to `OB(Cc1ccccc1)c1ccccc1`, for which the T/C is, setting by setting: (dose: 100.0 mg/kg/injection, schedule: Q01DX001 (ip), vehicle: saline) 97 % of control; (dose: 200.0 mg/kg/injection, schedule: Q01DX001 (ip), vehicle: saline) 89 % of control; (dose: 400.0 mg/kg/injection, schedule: Q01DX001 (ip), vehicle: saline) 97 % of control.
Take `O=S1(=O)C=CCC1`: the T/C is 100 % of control (dose: 50.0 mg/kg/injection, schedule: Q01DX001 (ip), vehicle: carboxymethylcellulose (CMC)); 94 % of control under setting [5]; 96 % of control (dose: 100.0 mg/kg/injection, schedule: Q01DX009 (ip), vehicle: saline); 100 % of control (dose: 100.0 mg/kg/injection, schedule: Q04DX003 (ip), vehicle: saline); 103 % of control under setting [6]; 102 % of control (dose: 200.0 mg/kg/injection, schedule: Q01DX009 (ip), vehicle: saline). Besides, the T/C is, setting by setting: (dose: 200.0 mg/kg/injection, schedule: Q04DX003 (ip), vehicle: saline) 94 % of control; (dose: 400.0 mg/kg/injection, schedule: Q04DX003 (ip), vehicle: saline) 100 % of control.
For `CCOC(=O)C(C(=O)OCC)C1CCCC(=O)C1` (stereo not given), the T/C (dose: 50.0 mg/kg/injection, schedule: Q01DX009 (ip), vehicle: saline with Tween-80) is 92 % of control; the T/C (dose: 100.0 mg/kg/injection, schedule: Q01DX009 (ip), vehicle: saline with Tween-80) is 96 % of control; the T/C (dose: 200.0 mg/kg/injection, schedule: Q01DX009 (ip), vehicle: saline with Tween-80) is 92 % of control.
`O=C1CCOc2ccc(Cl)cc21`: the T/C is 95 % of control under setting [2], 101 % of control under setting [3] and 106 % of control under setting [4].
As to `COc1cc(O)c([N+](=O)[O-])cc1[N+](=O)[O-]`, the T/C by setting is: under setting [5], 96 % of control; under setting [6], 91 % of control; (dose: 400.0 mg/kg/injection, schedule: Q01DX001 (ip), vehicle: carboxymethylcellulose (CMC)) 100 % of control.

These data come from PubChem BioAssay AID248 (DTP/NCI, 2004).
